≈ marks a conversion by molar mass, not a printed value. Read-outs that look alike come from different tables or passages of the source.
Experiments:
[1] = Phase 1a single ascending dose study (oral solution): safety and tolerability; type: in vivo, human; conditions: all doses evaluated (20-240 mg) in 50 mL or 100 mL vehicle
Description: (§1) The primary objective of the study was to assess the safety and tolerability of ascending dose levels of Compound 1 after single oral dose administration. The safety endpoints included AE incidence, clinically significant changes in vital signs, ECG parameters, clinical laboratory tests and physical examination.
All subjects underwent a complete physical examination and their medical history and demographic information collected. The body systems evaluated included general appearance, skin, lymphatic, head and neck, EENT (eyes, ears, nose, and throat), chest and lungs, cardiovascular, abdomen, extremities, musculoskeletal and neuromuscular. Vital signs were measured. Blood pressure, pulse, respiratory rate and oral temperature; were taken. Blood and urine samples were collected at screening, pre-baseline, baseline, during the treatment period, and Day 8 follow-up visit; the following clinical laboratory evaluations were conducted. […]

[2] = Phase 1a single ascending dose study (oral solution): plasma pharmacokinetics; type: in vivo; conditions: male, human; for AUC(0-t): read-out: AUClast, mean (SD); for Cmax: read-out: Cmax, mean (SD)
Procedure: Compound 1 was administered as the HCl-salt (prepared analogously to Example 2.1).
Placebo dosing solutions were identical to active, except without Compound 1. […] Since HPβCD concentration remained constant, subjects in Cohort 5 received twice the amount of HPβCD relative to subjects in Cohorts 1 to 4. Dosing, including consumption of rinse water, was completed within 3 minutes, administered in the morning after an overnight fast, and maintained for up to 4 hours after dosing.
The secondary objective was to characterize the single-dose pharmacokinetic (PK) parameters of Compound 1 after ascending doses.
Blood samples were collected at baseline, day 1 (0.5, 1, 2, 3, 4, 6, 8, 12, 16, 24 hours post dose), day 2 (30, 36 and 48 hours post dose) and day 8 follow-up visit. Analysis of plasma samples was performed using a validated Liquid Chromatography—Mass Spectrometry and Liquid Chromatography—Tandem Mass Spectrometry (LC-MS/MS) method.

[3] = test system: hypoxia inducible factor (HIF)-inducible gene expression; assay: Phase 1a multiple ascending dose study: HIF-inducible gene expression in colonic mucosal biopsy samples; type: in vivo, human
Procedure: Colonic mucosal biopsy samples were also assessed for hypoxia inducible factor (HIF)-inducible gene expression. For Tier 1 association tests, two significant gene were detected (HMOX1, CA9).

[4] = Phase 1a multiple ascending dose study (oral solution): safety and tolerability; type: in vivo, human
Procedure: as §1, with “doses” for “dose levels”, “multiple” for “single”, “doses” for “dose”, “TEAE incidence and severity,” for “AE incidence,”
Safety and tolerability were assessed by review of vital signs, laboratory results (serum chemistry, hematology and urinalysis), ECG, physical examination findings, AEs, and PK assessment following the Day 1 and Day 7 doses. […] One event of vomiting led to early trial discontinuation in the 240 mg dose group.

[5] = Compound 1 pH-solubility at 22° C.; type: physicochemical; conditions: for solubility: aqueous buffer, thermodynamic from solid
Description: The solubility of Compound 1 at various pH's was investigated.

pKa of Compound 1 = type: physicochemical; conditions: two basic groups
Description: The pKa value expresses the strength of acids and base, i.e. the tendency for an acid to lose a proton or a base to accept a proton (Bronsted J. N. Rec. trav. Chim. (47), 718, 1923) and the protonation and deprotonation of the basic groups in the compound has a marked effect upon the solubility of Compound 1 in aqueous media. Consequently, the solubility of Compound 1 is highly dependent upon pH.

EPO and VEGF = assay: Phase 1a multiple ascending dose study: circulating EPO and VEGF levels in serum; type: in vivo, human; conditions: serum samples
[6] = Phase 1a multiple ascending dose study: Compound 1 in fecal samples; type: in vivo, human; conditions: for dose excreted: human, feces, oral, read-out: Mean recovery of Compound 1 in feces, range across cohorts
Procedure: Fecal samples were collected, when possible, over 24 hours (0-24 hours) post administration on Day 1 and Day 7; the absolute amount of Compound 1 measured (mg) is shown Table 48.

[7] = 20 mg, Cohort 1, 20 mg single oral dose (0.4 mg/mL, 50 mL)
[8] = 60 mg, Cohort 2, 60 mg single oral dose (1.2 mg/mL, 50 mL)
[9] = 120 mg, Cohort 3, 120 mg single oral dose (2.4 mg/mL, 50 mL)
[10] = 240 mg, Cohort 4, 240 mg single oral dose (4.8 mg/mL, 50 mL)
[11] = 240 mg, Cohort 5, 240 mg single oral dose (2.4 mg/mL, 100 mL)

## CC(C)(C)OC(=O)N1CCN(Cc2ccn(Cc3ccc(Cl)cc3)c(=O)c2O)CC1 [Compound 1, tert-butyl 4-((1-(4-chlorobenzyl)-3-hydroxy-2-oxo-1,2-dihydropyridin-4-yl)methyl)piperazine-1-carboxylate]
[1]
  Safety and tolerability: safe and well tolerated
[2]; [7]
  Tmax: 30 min
  AUC(0-t): 10.7 ng·h/mL
  Cmax: 2.06 ng/mL
[2]; [8]
  Tmax: 30 min
  AUC(0-t): 14.2 ng·h/mL
  Cmax: 7.71 ng/mL
[2]; [9]
  Tmax: 30 min
  AUC(0-t): 32.3 ng·h/mL
  Cmax: 12.4 ng/mL
[2]; [10]
  Tmax: 30 min
  AUC(0-t): 41.3 ng·h/mL
  Cmax: 25 ng/mL
[2]; [11]
  Tmax: 30 min
  AUC(0-t): 79.5 ng·h/mL
  Cmax: 30.7 ng/mL
[2]; single oral solution dose, healthy male subjects
  Tmax: < 60 min
[2]; single oral solution formulation dose
  Tmax: 30 min
[3]; Tier 1 association tests
  Significant genes detected: HMOX1, CA9
[3]; Tier 2 analysis
  Significant genes detected: NDRG1, LCN2, BNIP3, TFF3, AKR1C3, BIRC3, TMEM45A and HILPDA
[4]; 240 mg dose once daily
  Tolerability: less well tolerated
[4]; doses up to 120 mg once daily for 8 days
  Tolerability: generally well tolerated
[5]; TRIS buffer, pH 8 (TRIS 25 mM, l = 0.1), pH 8.0, 22° C.
  solubility: 0.69 µg/mL (≈ 1.59 µM)
[5]; above pH 4
  Solubility (in words): practically insoluble
[5]; 0.1M NaOH, pH 12.6, 22° C.
  solubility: 890 µg/mL (≈ 2050 µM)
[5]; at pH 1
  Solubility (in words): soluble
[5]; at pH 6.8
  Solubility (in words): totally insoluble
[5]; citrate buffer, pH 3 (Citrate 25 mM, l = 0.1), pH 2.9, 22° C.
  solubility: 570 µg/mL (≈ 1310 µM)
[5]; citrate buffer, pH 4 (Citrate 25 mM, l = 0.1), pH 3.9, 22° C.
  solubility: 94 µg/mL (≈ 217 µM)
[5]; citrate buffer, pH 5 (Citrate 25 mM, l = 0.1), pH 5.0, 22° C.
  solubility: 9.8 µg/mL (≈ 22.6 µM)
[5]; glycine buffer, pH 10 (Glycine 25 mM, l = 0.1), pH 9.9, 22° C.
  solubility: 9.9 µg/mL (≈ 22.8 µM)
[5]; phosphate buffer, pH 6.5 (Phosphate 25 mM, l = 0.1), pH 6.5, 22° C.
  solubility: 1 µg/mL (≈ 2.3 µM)
pKa of Compound 1
  pKa: 6.5
EPO and VEGF
  Effects on circulating EPO and VEGF levels: no Compound 1-related effects
[6]; Cohort 1, 60 mg once daily, DAY 7, 0-24 hours
  Mean observed amount of Compound 1 in fecal samples: 22.0 mg
[6]; Cohort 1, 60 mg, DAY 1, 0-24 hours
  Mean observed amount of Compound 1 in fecal samples: 11.8 mg
[6]; Cohort 2, 120 mg once daily, DAY 7, 0-24 hours
  Mean observed amount of Compound 1 in fecal samples: 37.5 mg
[6]; Cohort 2, 120 mg, DAY 1, 0-24 hours
  Mean observed amount of Compound 1 in fecal samples: 5.9 mg
[6]; Cohort 3, 240 mg once daily, DAY 7, 0-24 hours
  Mean observed amount of Compound 1 in fecal samples: 125.3 mg
[6]; Cohort 3, 240 mg, DAY 1, 0-24 hours
  Mean observed amount of Compound 1 in fecal samples: 46.5 mg
[6]; Cohort 4, 120 mg once daily, DAY 7, 0-24 hours
  Mean observed amount of Compound 1 in fecal samples: 33.9 mg
[6]; Cohort 4, 120 mg, DAY 1, 0-24 hours
  Mean observed amount of Compound 1 in fecal samples: 14.4 mg
[6]; Cohort 5, 60 mg once daily, DAY 7, 0-24 hours
  Mean observed amount of Compound 1 in fecal samples: 11.6 mg
[6]; Cohort 5, 60 mg, DAY 1, 0-24 hours
  Mean observed amount of Compound 1 in fecal samples: 13.0 mg
[6]; Day 1
  Mean fecal concentrations of Compound 1, range across cohorts: 40 to 225 µg/g
  dose excreted: 5 to 22%
[6]; Day 7
  Mean fecal concentrations of Compound 1, range across cohorts: 95 to 506 µg/g
  dose excreted: 19 to 52%
